From ChEMBL document CHEMBL5154664, “Imidazolylacetophenone oxime-based multifunctional neuroprotective agents: Discovery and structure-activity relationships” (Eur J Med Chem, 2022)

What was measured:
[1] = Cytotoxicity against LPS induced mouse BV-2 cells assessed as inhibition in cell viability at 20 uM measured by MTT assay; settings: BV-2 cells
[2] = Inhibition of LPS induced NO production in mouse BV-2 cells by Griess reagent based analysis; format: functional, cell-based
[3] = Antioxidant activity assessed as DPPH radical scavenging activity at 20 uM incubated for 30 mins under dark condition by microplate reader based assay; format: functional
[4] = target: Acetylcholinesterase (Electrophorus electricus) (UniProt O42275); assay: Inhibition of electric eel AChE at 20 uM using acetylthiocholine iodide as substrate preincubated with enzyme for 20 mins followed by substrate addition and measured after 45 mins by Ellman's method; settings: time 65.0 min
Chain of Acetylcholinesterase (Electrophorus electricus) (O42275 24-633 limits assumed): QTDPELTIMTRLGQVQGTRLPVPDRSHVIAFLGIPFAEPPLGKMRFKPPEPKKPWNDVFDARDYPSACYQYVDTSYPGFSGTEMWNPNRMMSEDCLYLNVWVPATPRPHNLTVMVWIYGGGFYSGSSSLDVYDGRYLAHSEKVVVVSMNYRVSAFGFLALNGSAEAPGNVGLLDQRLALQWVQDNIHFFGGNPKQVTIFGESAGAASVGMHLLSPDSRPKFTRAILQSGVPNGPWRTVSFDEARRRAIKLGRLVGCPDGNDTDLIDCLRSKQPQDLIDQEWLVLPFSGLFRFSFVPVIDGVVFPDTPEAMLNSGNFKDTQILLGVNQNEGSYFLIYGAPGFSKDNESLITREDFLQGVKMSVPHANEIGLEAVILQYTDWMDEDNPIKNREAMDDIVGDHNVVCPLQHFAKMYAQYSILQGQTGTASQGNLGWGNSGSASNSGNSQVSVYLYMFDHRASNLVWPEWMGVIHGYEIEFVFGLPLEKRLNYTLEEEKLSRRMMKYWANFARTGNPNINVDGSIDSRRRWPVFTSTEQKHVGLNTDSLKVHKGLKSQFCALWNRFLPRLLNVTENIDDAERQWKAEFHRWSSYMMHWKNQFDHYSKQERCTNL

Compound `C(=C\c1ccccc1)/CO/N=C(\Cn1ccnc1)c1ccc2c(c1)OCO2` has a viability at 20 µM [1] of 96.3% and an EC50 [2] greater than 20 µM.

`C=C(C)CO/N=C(\Cn1ccnc1)c1ccc2c(c1)OCO2` showed a viability at 20 µM [1] of 96.5% and an EC50 [2] of 2.12 µM.

Compound `FC(F)(F)c1ccccc1CO/N=C(\Cn1ccnc1)c1ccc2c(c1)OCO2` has an Activity [3] of 8.51%, a viability at 20 µM [1] of 95.4% and an EC50 [2] of 1.53 µM.

For `C#CCO/N=C(\Cn1ccnc1)c1ccc(Br)cc1`, the CC50 [1] was greater than 20 µM and the EC50 [2] was 5.6 µM.

`C=CCO/N=C(\Cn1ccnc1)c1ccc2c(c1)OCO2` gave a viability at 20 µM [1] of 97.8% and an EC50 [2] of 3.42 µM.

`CC1(C)Oc2ccc(/C(Cn3ccnc3)=N/OC(=O)c3ccccc3Br)cc2O1` gave a viability at 20 µM [1] of 95.4% and an EC50 [2] of 3.89 µM.

In the case of `CC1(C)Oc2ccc(/C(Cn3ccnc3)=N/OC(=O)c3ccc(F)cc3)cc2O1`, the viability at 20 µM [1] is reported as 99.7% and the EC50 [2] is reported as 6.32 µM.

In the case of `C#CC(C)O/N=C(\Cn1ccnc1)c1ccc2c(c1)OCO2` (stereo not given), the viability at 20 µM [1] is reported as 96.1% and the EC50 [2] is reported as 5.41 µM.

For `CC1(C)Oc2ccc(/C(Cn3ccnc3)=N/OC(=O)/C=C/c3cccc(Cl)c3)cc2O1`, the viability at 20 µM [1] was 92.7% and the EC50 [2] was 4.83 µM.

Compound `CC1(C)Oc2ccc(/C(Cn3ccnc3)=N/OC(=O)/C=C/c3ccccc3)cc2O1` has a viability at 20 µM [1] of 91.8% and an EC50 [2] of 5.85 µM.

With `CC1(C)Oc2ccc(/C(Cn3ccnc3)=N/OC(=O)Cc3ccc4ccccc4c3)cc2O1` the viability at 20 µM [1] was 96.4% and the EC50 [2] was 1.51 µM.

Compound `CC1(C)Oc2ccc(/C(Cn3ccnc3)=N/OC(=O)c3ccc4cc(Br)ccc4c3)cc2O1` has an inhibition [4] of 69%, a viability at 20 µM [1] of 92.7% and an EC50 [2] of 1.13 µM.

`CC1(C)Oc2ccc(/C(Cn3ccnc3)=N/OC(=O)/C=C/c3ccccc3F)cc2O1` showed a viability at 20 µM [1] of 90.8% and an EC50 [2] of 3.19 µM.

For `CC1(C)Oc2ccc(/C(Cn3ccnc3)=N/OCc3ccccc3)cc2O1`, the viability at 20 µM [1] was 95.7% and the EC50 [2] was 5.69 µM.

With `CC1(C)Oc2ccc(/C(Cn3ccnc3)=N/OC(=O)/C=C/c3ccc(Br)cc3)cc2O1` the viability at 20 µM [1] was 96.3% and the EC50 [2] was 6.89 µM.

Compound `CC1(C)Oc2ccc(/C(Cn3ccnc3)=N/OC(=O)c3ccc(Br)cc3)cc2O1` has a viability at 20 µM [1] of 92.6% and an EC50 [2] of 3.16 µM.

With `Cc1ccc(/C=C/C(=O)O/N=C(\Cn2ccnc2)c2ccc3c(c2)OC(C)(C)O3)cc1` the viability at 20 µM [1] was 93.6% and the EC50 [2] was 6.03 µM.

With `C#CCO/N=C(\Cn1ccnc1)c1ccc(F)cc1` the viability at 20 µM [1] was 93.8% and the EC50 [2] was 7.8 µM.

For `Cc1ccc(C(=O)O/N=C(\Cn2ccnc2)c2ccc3c(c2)OC(C)(C)O3)c2ccccc12`, the Activity [3] was 34%, the viability at 20 µM [1] was 94.3% and the EC50 [2] was 1.79 µM.

`O=c1c(O)c(-c2ccc(O)c(O)c2)oc2cc(O)cc(O)c12` [QUERCETIN] showed a viability at 20 µM [1] of 94.3% and an EC50 [2] of 9.56 µM.

With `C#CCO/N=C(\Cn1ccnc1)c1ccc2c(c1)OC(C)(C)O2` the viability at 20 µM [1] was 95.1% and the EC50 [2] was 3.25 µM.
